Measurements published in PMC7168333, “5-(Carbamoylmethylene)-oxazolidin-2-ones as a Promising Class of Heterocycles Inducing Apoptosis Triggered by Increased ROS Levels and Mitochondrial Dysfunction in Breast and Cervical Cancer” (Biomedicines, 2020).

Tests used:
HeLa cells = test: MTT cell viability assay, HeLa; type: cell-based; conditions: Homo sapiens, 72 h
Experimental: Cell viability was assessed by using 3-(4,5-dimethylthiazol-2-y1)-2,5-diphenyltetrazolium bromide (MTT) assay (Sigma-Aldrich, Milan, Italy), as already reported. In brief, MCF-7 and HeLa cells (2 × 10^4 cells/well) were seeded in a 48-well plate and grown in complete medium overnight, then they were switched into DMEM-F12 supplemented with 2% FBS and treated with increasing concentrations (1, 10, 50, 75, and 100 µM) of different oxazolidin-2-ones derivatives (OA-OI) or doxorubicin for 72 h. Untreated cells were added with the vehicle (DMSO) and used as a control. After treatment, fresh MTT reagent (used at a final concentration of 0.5 mg/mL) was added, prolonging incubation for 2 h according to the manufacturer’s protocol. Absorbance at 570 nm was measured in each well, including controls, and every experiment was carried out in triplicate.
(§1) For each sample, mean absorbance was expressed as a percentage of the control and plotted vs. drug concentration, in order to determine the IC50 value (i.e., drug concentration able to decrease cell viability by 50% with respect to the control) for each cell line, generating a sigmoidal dose–response curve by the use of GraphPad Prism 7 software (GraphPad Inc., San Diego, CA, USA). Mean values and standard deviations (SD) of three independent experiments carried out in triplicate were reported. […]

MCF-10A cells = test: MTT cell viability assay, MCF-10A; type: cell-based, human; conditions: Homo sapiens, MCF-10A, 72 h
MCF-7 cells = test: MTT cell viability assay, MCF-7; type: cell-based; conditions: Homo sapiens, MCF7, 72 h
Experimental: Cell viability was assessed by using 3-(4,5-dimethylthiazol-2-y1)-2,5-diphenyltetrazolium bromide (MTT) assay (Sigma-Aldrich, Milan, Italy), as already reported. […] Untreated cells were added with the vehicle (DMSO) and used as a control. After treatment, fresh MTT reagent (used at a final concentration of 0.5 mg/mL) was added, prolonging incubation for 2 h according to the manufacturer’s protocol. Absorbance at 570 nm was measured in each well, including controls, and every experiment was carried out in triplicate.
as §1

IC50 (HeLa cells) [µM]	IC50 (MCF-7 cells) [µM]	SMILES	IC50 (MCF-10A cells) [µM]
99.5	163	CCN(CC)C(=O)/C=C1\OC(=O)N(Cc2ccccc2)C1(C)C [OC]	494
129	304	CCCCN1C(=O)O/C(=C\C(=O)N2CCOCC2)C12CCCCC2 [OE]	978
98.2	122	CC1(C)/C(=C/C(=O)N2CCCCC2)OC(=O)N1Cc1ccccc1 [OB]	470
134	345	CC1(C)/C(=C/C(=O)N2CCOCC2)OC(=O)N1Cc1ccccc1 [OG]	677
52.5	56.9	CC1(C)/C(=C\C(=O)N2CCCCC2)OC(=O)N1Cc1ccccc1 [OA]	414
